Tests used:
Csn5 = Csn5 (Homo sapiens (Human), UniProt Q92905); assay: Csn5 activity assay (fluorescence polarization, SCF^skp2-Nedd8OG, COP9 Signalosome Complex); type: biochemical; conditions: Table 2
Protocol: Csn5 Activity Assay. […] In brief, a fluorescent substrate termed SCF^skp2-Nedd8OG was produced to measure CSN5 activity in vitro. This assay measures the decrease in fluorescence polarization due to the decrease in apparent molecular weight of Oregon Green (OG) fluorophore (from the ˜175 kDa substrate to ˜9 kDa Nedd8OG) as a result of Csn5-mediated cleavage of the isopeptide bond that links Nedd8OG to SCF^Skp2. The assay was performed in a low-volume 384 well solid black plate comprising equal volumes of compound, substrate (SCF^skp2-Need8OG) and enzyme (purified COP9 Signalosome Complex, CSN). Fluorescence polarization was recorded using the same setting as for the Rpn11 activity assay.

Ub^G76V-GFP = assay: Reporter degradation assay in Hela cells expressing Ub^G76V-GFP; type: cell-based; conditions: after MG132 removal, cycloheximide chase
Protocol: Characterization of the Compound Activity in Cells. […] After 4 hours, MG132 was removed and a cycloheximide (CHX) chase was initiated +/− different concentrations of test compound and the rate of reporter degradation was evaluated by monitoring GFP fluorescence by high throughput microscopy. The rate of fluorescence decrease was normalized to DMSO control and analyzed using does-response equation.

Rpn11 [1] = target: T1, Rpn11 (Homo sapiens (Human), UniProt O00487); assay: Rpn11 activity assay (fluorescence polarization, Ub4-pepOG cleavage by 26S proteasome); type: biochemical; conditions: does not inhibit Csn5 or AMSH with the same potency as Rpn11
T1 sequence (O00487 whole entry, looked up): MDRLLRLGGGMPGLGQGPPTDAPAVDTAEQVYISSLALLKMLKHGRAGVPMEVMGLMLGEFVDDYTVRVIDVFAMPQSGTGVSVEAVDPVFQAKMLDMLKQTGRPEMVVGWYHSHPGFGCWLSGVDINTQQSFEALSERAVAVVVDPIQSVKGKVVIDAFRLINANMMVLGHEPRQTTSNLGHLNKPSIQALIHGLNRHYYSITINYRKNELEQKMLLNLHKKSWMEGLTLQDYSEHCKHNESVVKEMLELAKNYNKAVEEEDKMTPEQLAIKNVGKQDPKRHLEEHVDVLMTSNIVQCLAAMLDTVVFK

Rpn11 [2] = target: T1, Rpn11; assay: as above; type: biochemical; conditions: Table 2; 1 mM DTT in assay reduces disulfides to monomeric active species
Description: Candidate compounds according to embodiments of the present invention were synthesized as described herein. […] In brief, this Rpn11 bioassay employs a fluorescent polarization readout based on the ability of the 26S proteasome to cleave the protein substrate including four tandem ubiquitin proteins fused to a peptide having a unique cysteine labeled with a fluorophore. Cleavage of this substrate by Rpn11 at the junction between the fourth ubiquitin and the peptide, releases the low molecular weight fluorescent peptide. Accordingly, inhibition of fluorescence correlates with inhibition of Rpn11. Inhibition is reported as the half maximal inhibitory concentration (IC50) for the candidate compound.
Rpn11 Activity Assay. […] In brief, in order to measure the Rpn11 activity, a synthetic peptide substrate, termed Ub4-pepOG, was engineered. […] Peptide substrate Ub4-pepOG consists of only 30 amino acids and therefore the decrease of polarization is mainly from deubiquitination but not the proteolysis of the peptide. Fluorescence polarization assay was performed in a low-volume 384 well solid black plate where the components are added in the follow sequence: 1) 5 μl compound in 3% DMSO or 3% DMSO control 2) 5 μl 26S proteasome (Enzo Life Sciences Inc, NY). […] Fluorescence polarization is measured using a PHERAstar (BMG labtech, Ortenberg, Germany) plate reader with excitation of 480 nm and emission of 520 nm filter set. […] Rpn11 activity was normalized to DMSO control and fitted using does-response curve.

AMSH = AMSH (Homo sapiens (Human), UniProt O95630); assay: AMSH activity assay (DiUb^K63TAMRA cleavage, fluorescence); type: biochemical; conditions: Table 2
Chain of AMSH (O95630 whole entry): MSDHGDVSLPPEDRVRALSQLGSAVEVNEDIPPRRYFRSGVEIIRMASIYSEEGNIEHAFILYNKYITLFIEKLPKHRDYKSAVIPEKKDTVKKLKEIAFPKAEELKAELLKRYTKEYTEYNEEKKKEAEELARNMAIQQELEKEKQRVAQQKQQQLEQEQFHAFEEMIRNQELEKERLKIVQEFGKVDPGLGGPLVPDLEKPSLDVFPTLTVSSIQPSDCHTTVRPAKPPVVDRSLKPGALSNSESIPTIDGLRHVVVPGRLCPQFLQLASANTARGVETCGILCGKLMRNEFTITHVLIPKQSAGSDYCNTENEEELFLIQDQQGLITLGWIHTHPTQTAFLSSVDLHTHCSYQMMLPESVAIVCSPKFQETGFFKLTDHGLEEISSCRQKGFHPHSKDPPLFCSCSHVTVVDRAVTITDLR
Description: AMSH Activity Assay. AMSH is known to selectively cleave ubiquitin chains in which the ubiquitins are joined via K63 of the proximal ubiquitin linked by an isopeptide bond to the carboxy terminus of the distal ubiquitin. […] In brief, DiUb^K63TAMRA was labeled with quench pairs TAMRA/QXL.

| Structure (SMILES) | IC50 (Csn5) [nM] | IC50 (Ub^G76V-GFP) [nM] | specificity for Rpn11 versus Csn5 and/or AMSH (in words) (Rpn11 [1]) | IC50 (Rpn11 [2]) [nM] | IC50 (AMSH) [nM] | IC50 (Ub^G76V-GFP; Homo sapiens) [nM] |
| --- | --- | --- | --- | --- | --- | --- |
| O=C(NCc1ccncc1)c1cnc2c(SSc3cccc4cc(C(=O)NCc5ccncc5)cnc34)cccc2c1 [Compound 15, 8,8′-Disulfanediylbis(N-(pyridin-4-ylmethyl)quinoline-3-carboxamide)] | 7000 | > 10000 | specific inhibitors of Rpn11 | 200 | 500 |  |
| O=C(NCc1ccc(C(F)(F)F)cc1)c1cnc2c(SSc3cccc4cc(C(=O)NCc5ccc(C(F)(F)F)cc5)cnc34)cccc2c1 [Compound 18, 8,8′-Disulfanediylbis(N-(4-(trifluoromethyl)benzyl)quinoline-3-carboxamide)] | > 100000 | > 10000 | specific inhibitors of Rpn11 | 700 | 3400 |  |
| O=C(NCCc1cccs1)c1ccnc2c(SSc3cccc4c(C(=O)NCCc5cccs5)ccnc34)cccc12 [Compound 24, 8,8′-disulfanediylbis(N-(2-(thiophen-2-yl)ethyl)quinoline-4-carboxamide)] | 7300 | 1100 | specific inhibitors of Rpn11 | 700 | 1000 |  |
| O=C(NCCc1ccco1)c1ccnc2c(SSc3cccc4c(C(=O)NCCc5ccco5)ccnc34)cccc12 [Compound 26, 8,8′-disulfanediylbis(N-(2-(furan-2-yl)ethyl)quinoline-4-carboxamide)] | 8000 |  | specific inhibitors of Rpn11 | 1000 | 2900 | 1600 |

From patent US10005735B2, “Inhibitors of RPN11” (California Institute of Technology, priority 2015, dated 2018)
